Source: patent US20250059164A1, “IRAK DEGRADERS AND USES THEREOF” (Kymera Therapeutics, Inc., priority 2023, published 2025)

Target: T1, IRAK4 (Homo sapiens, UniProt Q9NWZ3)
T1 construct: endogenous in cells; host or cells: OCI-LY10
T1 sequence (Q9NWZ3 1-460): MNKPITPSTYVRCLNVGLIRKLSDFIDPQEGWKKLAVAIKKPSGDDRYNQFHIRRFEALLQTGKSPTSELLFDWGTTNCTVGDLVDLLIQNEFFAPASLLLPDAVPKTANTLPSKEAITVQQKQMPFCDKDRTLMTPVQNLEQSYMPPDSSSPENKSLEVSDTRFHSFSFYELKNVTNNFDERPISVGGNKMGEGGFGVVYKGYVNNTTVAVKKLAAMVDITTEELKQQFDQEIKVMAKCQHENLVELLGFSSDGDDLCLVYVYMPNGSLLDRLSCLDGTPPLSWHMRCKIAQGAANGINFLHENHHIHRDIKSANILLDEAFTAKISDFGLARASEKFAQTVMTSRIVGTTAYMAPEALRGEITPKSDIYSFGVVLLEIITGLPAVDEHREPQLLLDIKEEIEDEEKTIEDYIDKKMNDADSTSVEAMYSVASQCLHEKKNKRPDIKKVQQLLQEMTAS
Assay: IRAK4 MSD degradation in OCI-LY10
Assay type: cell-based
Conditions: OCI-LY10 cells, 24 hrs, Meso Scale Discovery
In short: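 OCI-LY10 cells treated 4 to 24 hours at 37° C. with 8-dose 1:3 series, top 1 to 10 μM. IRAK4 in lysates quantified by MSD sandwich immunoassay (mouse capture, rabbit detection, SULFO-TAG anti-rabbit). DC50 from three-parameter logistic fit.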

Row | SMILES | DC50
1 | Cn1nc(N2CCC(=O)NC2=O)c2cccc(N3CC(CN4CCN(C[C@H]5CC[C@H](n6cc(NC(=O)c7cnn8ccc(N9C[C@H]%10C[C@@H]9CO%10)nc78)c(C(F)F)n6)CC5)CC4)C3)c21 [I-91] | 10 to 100 nM
2 | Cc1nn(C2CCC(=O)NC2=O)c2cc(F)cc(N3CC(CN4CCN(C[C@H]5CC[C@H](n6cc(NC(=O)c7cnn8ccc(N9C[C@H]%10C[C@@H]9CO%10)nc78)c(C(F)F)n6)CC5)CC4)C3)c12 (stereo partly shown) [I-92] | < 10 nM
3 | Cn1nc(C2CCC(=O)NC2=O)c2cccc(N3CC(CN4CCN(C[C@H]5CC[C@H](n6cc(NC(=O)c7cnn8ccc(N9C[C@H]%10C[C@@H]9CO%10)nc78)c(C(F)F)n6)CC5)CC4)C3)c21 (stereo partly shown) [I-93] | < 10 nM
4 | Cn1c(=O)n(C2CCC(=O)NC2=O)c2cccc(OC3CC4(CCN(Cc5ccc(-n6cc(NC(=O)c7cnn8ccc(N9C[C@H]%10C[C@@H]9CO%10)nc78)c(C(F)F)n6)cc5)CC4)C3)c21 (stereo partly shown) [I-113] | < 10 nM
5 | Cn1c(=O)n(C2CCC(=O)NC2=O)c2cccc(N3CC(C4CCN([C@H]5CC[C@H](n6cc(NC(=O)c7cnn8ccc(N9C[C@H]%10C[C@@H]9CO%10)nc78)c(C(F)F)n6)CC5)CC4(F)F)C3)c21 (stereo partly shown) [I-115] | < 10 nM
6 | COc1cc2nn([C@H]3CC[C@H](CN4CCN(c5cccc6c5c(C)nn6C5CCC(=O)NC5=O)CC4)CC3)cc2cc1NC(=O)c1cncc(C)c1 (stereo partly shown) [I-118] | 10 to 100 nM
7 | O=C1CCN(c2cncc3c(N4CC(CO[C@@H]5CCN(C[C@H]6CC[C@H](n7cc(NC(=O)c8cnn9ccc(N%10C[C@H]%11C[C@@H]%10CO%11)nc89)c(C(F)F)n7)CC6)C[C@@H]5F)C4)cccc23)C(=O)N1 [I-120] | < 10 nM
8 | O=C1CC[C@H](c2ccc(N3CC(N4CCN([C@H]5CC[C@H](n6cc(NC(=O)c7cnn8ccc(N9C[C@H]%10C[C@@H]9CO%10)nc78)c(C(F)F)n6)CC5)CC4)C3)cc2Cl)C(=O)N1 [I-124] | < 10 nM
9 | O=C1CC[C@@H](c2ccc(N3CC(N4CCN([C@H]5CC[C@H](n6cc(NC(=O)c7cnn8ccc(N9C[C@H]%10C[C@@H]9CO%10)nc78)c(C(F)F)n6)CC5)CC4)C3)cc2Cl)C(=O)N1 [I-125] | 10 to 100 nM
10 | COc1cc2nn([C@H]3CC[C@H](CN4CCC5(CCN(c6ccc(C7CCC(=O)NC7=O)c(Cl)c6)CC5)C(F)(F)C4)CC3)cc2cc1NC(=O)c1cncc(C#N)c1 (stereo partly shown) [I-130] | 10 to 100 nM
11 | COc1cc2nn([C@H]3CC[C@H](CN4CCC5(CCN(c6cccc7c6c(C)nn7C6CCC(=O)NC6=O)CC5)C(F)(F)C4)CC3)cc2cc1NC(=O)c1cncc(C#N)c1 (stereo partly shown) [I-131] | 10 to 100 nM
12 | COc1cc2nc(C3CCN(CC4(F)CCN(c5cccc6c5n(C)c(=O)n6C5CCC(=O)NC5=O)CC4)CC3)sc2cc1NC(=O)c1cncc(C#N)c1 (stereo not shown) [I-157] | > 200 nM
13 | CN(C[C@H]1CC[C@H](n2cc(NC(=O)c3cnn4cccnc34)c(C(F)F)n2)CC1)[C@@H]1CCN(c2cccc3c2n(C)c(=O)n3C2CCC(=O)NC2=O)CC1(F)F (stereo partly shown) [I-202] | 10 to 100 nM
14 | CN(C[C@H]1CC[C@H](n2cc(NC(=O)c3cnn4cccnc34)c(C(F)F)n2)CC1)[C@H]1CCN(c2cccc3c2n(C)c(=O)n3C2CCC(=O)NC2=O)CC1(F)F (stereo partly shown) [I-203] | 10 to 100 nM
15 | COc1cn2nc([C@H]3CC[C@H](CN4CCC5(CCN(c6cccc7c6n(C)c(=O)n7C6CCC(=O)NC6=O)CC5)C(F)(F)C4)CC3)cc2cc1NC(=O)c1cncc(C#N)c1 (stereo partly shown) [I-282] | > 200 nM
16 | Cc1nn(C2CCC(=O)NC2=O)c2ccc(F)c(N3CC(CN4CCN(C[C@H]5CC[C@H](n6cc(NC(=O)c7cnn8ccc(N9C[C@H]%10C[C@@H]9CO%10)nc78)c(C(F)F)n6)CC5)CC4)C3)c12 (stereo partly shown) [I-287] | < 10 nM
17 | Cn1c(=O)n(C2CCC(=O)NC2=O)c2cccc(C#CCN3CCN(C[C@H]4CC[C@H](n5cc(NC(=O)c6cnn7ccc(N8C[C@H]9C[C@@H]8CO9)nc67)c(C(F)F)n5)CC4)[C@@H](C(F)(F)F)C3)c21 (stereo partly shown) [I-320] | 10 to 100 nM

The remaining lines, values ahead:

Row | DC50 | SMILES
18 | < 10 nM | COc1cc2nn([C@H]3CC[C@H](CN(C)[C@@H]4CCN(c5cccc6c5n(C)c(=O)n6C5CCC(=O)NC5=O)C[C@H]4F)CC3)cc2cc1NC(=O)c1cccc(C(F)(F)F)n1 (stereo partly shown) [I-90]
19 | < 10 nM | Cn1c(=O)n(C2CCC(=O)NC2=O)c2cccc([C@@H]3CCN(C[C@H]4C[C@H](n5cc6cc(NC(=O)c7cccc(C(F)(F)F)n7)c(C#N)cc6n5)C4)C[C@H]3F)c21 (stereo partly shown) [I-94]
20 | 10 to 100 nM | Cn1c(=O)n(C2CCC(=O)NC2=O)c2cccc([C@H]3CCN(C[C@H]4CC[C@H](c5nc6ccc(NC(=O)c7cccc(C(F)(F)F)n7)cc6s5)CC4)C[C@@H]3F)c21 (stereo partly shown) [I-97]
21 | < 10 nM | Cn1c(=O)n(C2CCC(=O)NC2=O)c2cccc([C@H]3CCN(C[C@H]4CC[C@H](c5nc6cc(C(C)(C)O)c(NC(=O)c7cccc(C(F)(F)F)n7)cc6s5)CC4)C[C@@H]3F)c21 (stereo partly shown) [I-103]
22 | < 10 nM | CN(C[C@H]1CC[C@H](c2nc3cc(C(C)(C)O)c(NC(=O)c4cccc(C(F)(F)F)n4)cc3s2)CC1)[C@H]1CCN(c2cccc3c2n(C)c(=O)n3C2CCC(=O)NC2=O)C[C@H]1F (stereo partly shown) [I-105]
23 | < 10 nM | Cn1nc(C2CCC(=O)NC2=O)c2cccc([C@@H]3CCN(C[C@H]4CC[C@H](n5cc6cc(NC(=O)c7cccc(C(F)(F)F)n7)ccc6n5)CC4)C[C@H]3F)c21 (stereo partly shown) [I-122]
24 | 10 to 100 nM | Cn1c(=O)n(C2CCC(=O)NC2=O)c2cccc(N3CC(COC[C@H]4CC[C@H](n5cc6cc(NC(=O)c7cccc(C(F)(F)F)n7)ccc6n5)CC4)C3)c21 (stereo partly shown) [I-123]
25 | 10 to 100 nM | Cn1c(=O)n(C2CCC(=O)NC2=O)c2cccc(N3CC(COC[C@H]4CC[C@H](n5cc6cc(NC(=O)c7cccc(C(F)(F)F)c7)ccc6n5)CC4)C3)c21 (stereo partly shown) [I-126]
26 | < 10 nM | CN(C[C@H]1CC[C@H](c2nc3cc(C(C)(C)O)c(NC(=O)c4cccc(C(F)(F)F)n4)cc3o2)CC1)[C@H]1CCN(c2cccc3c2n(C)c(=O)n3C2CCC(=O)NC2=O)C[C@@H]1F (stereo partly shown) [I-138]
27 | < 10 nM | CN(C[C@H]1CC[C@H](c2nc3cc(C(C)(C)O)c(NC(=O)c4cccc(C(F)(F)F)n4)cc3o2)CC1)[C@@H]1CCN(c2cccc3c2n(C)c(=O)n3C2CCC(=O)NC2=O)C[C@@H]1F (stereo partly shown) [I-139]
28 | > 200 nM | COc1cc2nc([C@H]3CC[C@H](CN4CCC5(CCN(c6cccc7c6n(C)c(=O)n7C6CCC(=O)NC6=O)CC5)C(F)(F)C4)CC3)sc2cc1NC(=O)c1cncc(C#N)c1 (stereo partly shown) [I-150]
29 | 10 to 100 nM | COc1cc2nn([C@H]3CC[C@H](CN4CCC5(CCN(c6cccc7c6n(C)c(=O)n7C6CCC(=O)NC6=O)CC5)C(F)(F)C4)CC3)cc2cc1NC(=O)c1cccc(C(F)(F)F)c1 (stereo partly shown) [I-151]
30 | 10 to 100 nM | Cn1c(=O)n(C2CCC(=O)NC2=O)c2cccc(N3CCC4(CCN(C[C@H]5CC[C@H](n6cc7cc(NC(=O)c8cccc(C(F)(F)F)c8)ccc7n6)CC5)CC4(F)F)CC3)c21 (stereo partly shown) [I-158]
31 | 10 to 100 nM | Cn1c(=O)n(C2CCC(=O)NC2=O)c2cccc([C@@H]3CCN(C[C@H]4CC[C@H](n5cc6cc(NC(=O)c7cccnn7)ccc6n5)CC4)C[C@H]3F)c21 (stereo partly shown) [I-164]
32 | < 10 nM | Cn1c(=O)n(C2CCC(=O)NC2=O)c2cccc([C@@H]3CCN(C[C@H]4CC[C@H](n5cc6cc(NC(=O)c7coc(C(F)(F)F)n7)ccc6n5)CC4)C[C@H]3F)c21 (stereo partly shown) [I-165]
33 | > 200 nM | COc1cc2nc([C@H]3CC[C@H](CN4CCC5(CCN(c6cccc7c6n(C)c(=O)n7C6CCC(=O)NC6=O)CC5)C(F)(F)C4)CC3)cn2cc1NC(=O)c1cncc(C#N)c1 (stereo partly shown) [I-168]
34 | 10 to 100 nM | COc1cc2nc([C@H]3CC[C@H](CN4CC[C@@H](c5cccc6c5n(C)c(=O)n6C5CCC(=O)NC5=O)[C@H](F)C4)CC3)sc2cc1NC(=O)c1cncc(C(F)(F)F)n1 (stereo partly shown) [I-174]
35 | 10 to 100 nM | Cc1nn(C2CCC(=O)NC2=O)c2cccc([C@@H]3CCN(C[C@H]4CC[C@H](n5cc6cc(NC(=O)c7cccc(C(F)(F)F)n7)ncc6n5)CC4)C[C@H]3F)c12 (stereo partly shown) [I-187]
36 | > 200 nM | COc1cc2nc([C@H]3CC[C@H](CN4CC[C@@H](c5cccc6c5n(C)c(=O)n6C5CCC(=O)NC5=O)[C@H](F)C4)CC3)cn2cc1NC(=O)c1cncc(C#N)c1 (stereo partly shown) [I-198]
37 | 10 to 100 nM | CN(C[C@H]1CC[C@H](c2nc3cc(C(C)(C)O)c(NC(=O)c4cccc(C(F)(F)F)n4)cc3s2)CC1)[C@H]1CCN(c2cccc3c2n(C)c(=O)n3C2CCC(=O)NC2=O)C[C@@H]1F (stereo partly shown) [I-239]
38 | > 200 nM | Cn1c(=O)n(C2CCC(=O)NC2=O)c2cccc(N3CC(OC[C@H]4CC[C@H](n5cc6cc(NC(=O)c7cccc(C(F)(F)F)n7)ccc6n5)CC4)C3)c21 (stereo partly shown) [I-242]
39 | > 200 nM | Cn1c(=O)n(C2CCC(=O)NC2=O)c2cccc(N3CC(OC[C@H]4CC[C@H](n5cc6cc(NC(=O)c7cccc(C(F)(F)F)c7)ccc6n5)CC4)C3)c21 (stereo partly shown) [I-251]
40 | > 200 nM | COc1cc2nc([C@H]3CC[C@H](CN4CC[C@@H](c5cccc6c5n(C)c(=O)n6C5CCC(=O)NC5=O)[C@H](F)C4)CC3)sc2cc1NC(=O)c1cncc(C#N)c1 (stereo partly shown) [I-277]
41 | > 200 nM | Cn1c(=O)n(C2CCC(=O)NC2=O)c2cccc([C@@H]3CCN(C[C@H]4CC[C@H](c5nc6ccc(NC(=O)c7cncc(C(F)(F)F)n7)cc6o5)CC4)C[C@H]3F)c21 (stereo partly shown) [I-295]
42 | < 10 nM | COc1cn2nc([C@H]3CC[C@H](CN(C)[C@H]4CCN(c5cccc6c5n(C)c(=O)n6C5CCC(=O)NC5=O)C[C@@H]4F)CC3)cc2cc1NC(=O)c1cncc(C(F)(F)F)n1 (stereo partly shown) [I-301]
43 | > 200 nM | Cn1c(=O)n(C2CCC(=O)NC2=O)c2cccc([C@@H]3CCN(C[C@H]4CC[C@H](n5cc6cc(NC(=O)c7cnnc(C(F)(F)F)c7)ccc6n5)CC4)C[C@H]3F)c21 (stereo partly shown) [I-316]
